Square brackets hold non-standard residues; d marks the D form. Ends that are not written are not given here. Peptide text beside a SMILES is read from it. fluorescein = N-terminal fluorescein label; pT = C[C@@H](OP(=O)(O)O)[C@H](N)C(=O)O; pS = N[C@@H](COP(=O)(O)O)C(=O)O
T1: human 14-3-3 isoform σ (Homo sapiens, UniProt P31947)
T1 construct: MBP (cleaved yes); made in house; host or cells: E. coli BL21DE3
T1 sequence (P31947 1-248): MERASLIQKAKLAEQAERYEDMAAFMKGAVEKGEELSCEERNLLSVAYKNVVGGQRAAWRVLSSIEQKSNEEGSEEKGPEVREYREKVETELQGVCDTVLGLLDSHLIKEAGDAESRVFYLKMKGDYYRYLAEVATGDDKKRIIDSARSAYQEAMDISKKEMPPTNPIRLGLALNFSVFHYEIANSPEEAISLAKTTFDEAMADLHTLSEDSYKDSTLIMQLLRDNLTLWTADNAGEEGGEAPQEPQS

T2: human 14-3-3 isoform ϵ (Homo sapiens, UniProt P62258)
T2 construct: MBP (cleaved yes); made in house; host or cells: E. coli BL21DE3
T2 sequence (P62258 1-255): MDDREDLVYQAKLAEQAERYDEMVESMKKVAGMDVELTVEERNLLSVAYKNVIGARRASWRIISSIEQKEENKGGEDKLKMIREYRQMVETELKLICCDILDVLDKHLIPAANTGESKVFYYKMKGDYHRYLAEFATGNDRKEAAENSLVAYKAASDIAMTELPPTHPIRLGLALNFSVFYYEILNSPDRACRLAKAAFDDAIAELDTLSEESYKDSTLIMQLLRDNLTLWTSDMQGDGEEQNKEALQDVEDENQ

T3: human 14-3-3γ (Homo sapiens, UniProt P61981)
T3 construct: MBP (cleaved yes); made in house; host or cells: E. coli BL21DE3
T3 sequence (P61981 1-247): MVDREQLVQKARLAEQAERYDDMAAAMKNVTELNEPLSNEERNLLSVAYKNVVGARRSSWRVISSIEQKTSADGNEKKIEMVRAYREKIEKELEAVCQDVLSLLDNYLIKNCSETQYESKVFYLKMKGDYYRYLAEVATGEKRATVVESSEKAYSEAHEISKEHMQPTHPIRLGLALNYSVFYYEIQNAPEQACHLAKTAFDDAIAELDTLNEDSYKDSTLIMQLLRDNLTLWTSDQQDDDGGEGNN

T4: human 14-3-3 isoform β (recombinant, MBP tag removed) (human, UniProt P31946 1-246)
T4 construct: 14-3-3 beta, human; Expressed from pMAL2CX plasmids; also called 14-3-3β; source: E. coli BL21DE3, purified (maltose-agarose, Factor Xa, anion exchange)
T4 sequence (looked up): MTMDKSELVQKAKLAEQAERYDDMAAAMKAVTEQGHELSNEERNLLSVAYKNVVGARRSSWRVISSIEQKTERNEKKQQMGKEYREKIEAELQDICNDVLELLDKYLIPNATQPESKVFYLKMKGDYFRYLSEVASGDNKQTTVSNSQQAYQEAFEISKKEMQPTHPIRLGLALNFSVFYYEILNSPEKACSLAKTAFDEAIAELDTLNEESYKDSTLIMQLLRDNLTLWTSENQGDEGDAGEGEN

T5: human 14-3-3 isoform ε (recombinant, MBP tag removed) (human, UniProt P62258 1-255)
T5 construct: 14-3-3 epsilon, human; Expressed from pMAL2CX plasmids; also called 14-3-3ε; source: E. coli BL21DE3, purified (maltose-agarose, Factor Xa, anion exchange)
T5 sequence (looked up): T2 sequence (P62258 1-255)

T6: human 14-3-3 isoform ζ (recombinant, MBP tag removed) (human, UniProt P63104 1-245)
T6 construct: 14-3-3 zeta, human; Expressed from pMAL2CX plasmids; also called 14-3-3ζ; source: E. coli BL21DE3, purified (maltose-agarose, Factor Xa, anion exchange)
T6 sequence (looked up): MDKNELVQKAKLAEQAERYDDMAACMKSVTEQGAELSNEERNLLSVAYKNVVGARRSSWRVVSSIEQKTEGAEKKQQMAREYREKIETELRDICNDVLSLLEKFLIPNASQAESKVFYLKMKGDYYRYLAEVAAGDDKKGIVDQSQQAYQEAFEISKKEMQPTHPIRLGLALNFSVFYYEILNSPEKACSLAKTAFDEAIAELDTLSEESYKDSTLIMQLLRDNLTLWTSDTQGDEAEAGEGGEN

T7: human 14-3-3 isoform η (recombinant, MBP tag removed) (human, UniProt Q04917 1-246)
T7 construct: 14-3-3 eta, human; Expressed from pMAL2CX plasmids; also called 14-3-3η; source: E. coli BL21DE3, purified (maltose-agarose, Factor Xa, anion exchange)
T7 sequence (looked up): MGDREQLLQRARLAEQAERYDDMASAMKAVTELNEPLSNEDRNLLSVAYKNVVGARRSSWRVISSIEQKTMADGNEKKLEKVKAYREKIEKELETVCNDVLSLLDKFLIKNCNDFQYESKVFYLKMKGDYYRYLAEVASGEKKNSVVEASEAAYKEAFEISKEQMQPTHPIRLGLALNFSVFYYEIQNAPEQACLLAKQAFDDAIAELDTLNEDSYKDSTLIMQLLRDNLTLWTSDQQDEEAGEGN

T8: human 14-3-3 isoform θ (recombinant, MBP tag removed) (human, UniProt P27348 1-245)
T8 construct: 14-3-3 theta, human; Expressed from pMAL2CX plasmids; also called 14-3-3θ; source: E. coli BL21DE3, purified (maltose-agarose, Factor Xa, anion exchange)
T8 sequence (looked up): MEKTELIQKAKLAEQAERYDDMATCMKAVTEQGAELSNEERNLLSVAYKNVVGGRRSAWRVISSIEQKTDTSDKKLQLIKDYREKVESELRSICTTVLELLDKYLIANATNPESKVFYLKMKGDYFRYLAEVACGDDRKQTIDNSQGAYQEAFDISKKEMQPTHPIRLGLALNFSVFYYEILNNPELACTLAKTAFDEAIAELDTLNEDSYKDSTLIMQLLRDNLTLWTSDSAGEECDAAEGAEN

T9: human 14-3-3 isoform σ (recombinant, MBP tag removed) (human, UniProt P31947 1-248)
T9 construct: 14-3-3 sigma, human; Expressed from pMAL2CX plasmids; also called 14-3-3σ; source: E. coli BL21DE3, purified (maltose-agarose, Factor Xa, anion exchange)
T9 sequence (looked up): T1 sequence (P31947 1-248)

B1: pT2524 (peptide)
peptide: fluorescein-HIEVRKELAEKMRR[pT]SVE
notes: LRRK2-derived peptide of the very C-terminus, phosphorylated at T2524; source: synthetic peptide (Peps4LS GmbH)

Assays:
human 14-3-3 isoform β = biological target: T10, human 14-3-3 isoform β (Homo sapiens, UniProt P31946); test: Fluorescence polarization (FP) direct binding assay; conditions: fluorescein-labeled peptide 1 nM, 20 mM MOPS pH 7, 150 mM NaCl, 0.005% CHAPS, at least three independent measurements, read-out: Binding affinity (KD) toward 14-3-3 isoform β
T10 construct: MBP (cleaved yes); made in house; host or cells: E. coli BL21DE3
In short: (§1)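 Untagged human 14-3-3 isoforms (MBP removed) titrated from ≥5 μM down to picomolar against 1 nM fluorescein-labeled LRRK2-derived peptides, phosphorylated or not, in 20 mM MOPS pH 7, 150 mM NaCl, 0.005% CHAPS. KD from sigmoidal fit of FP (mPol) versus log protein concentration; duplicates, ≥2 independent replicates.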

human 14-3-3 isoform ζ = biological target: T11, human 14-3-3 isoform ζ (Homo sapiens, UniProt P63104); test: as above; conditions: fluorescein-labeled peptide 1 nM, 20 mM MOPS pH 7, 150 mM NaCl, 0.005% CHAPS, at least three independent measurements, read-out: Binding affinity (KD) toward 14-3-3 isoform ζ
T11 construct: MBP (cleaved yes); made in house; host or cells: E. coli BL21DE3
In short: as §1

human 14-3-3 isoform η = biological target: T12, human 14-3-3 isoform η (Homo sapiens, UniProt Q04917); test: as above; conditions: fluorescein-labeled peptide 1 nM, 20 mM MOPS pH 7, 150 mM NaCl, 0.005% CHAPS, at least three independent measurements, read-out: Binding affinity (KD) toward 14-3-3 isoform η
T12 construct: MBP (cleaved yes); made in house; host or cells: E. coli BL21DE3
In short: as §1

human 14-3-3 isoform θ = biological target: T13, human 14-3-3 isoform θ (Homo sapiens, UniProt P27348); test: as above; conditions: fluorescein-labeled peptide 1 nM, 20 mM MOPS pH 7, 150 mM NaCl, 0.005% CHAPS, at least three independent measurements, read-out: Binding affinity (KD) toward 14-3-3 isoform θ
T13 construct: MBP (cleaved yes); made in house; host or cells: E. coli BL21DE3
In short: as §1

human 14-3-3 isoform σ = biological target: T1, human 14-3-3 isoform σ; test: as above; conditions: fluorescein-labeled peptide 1 nM, 20 mM MOPS pH 7, 150 mM NaCl, 0.005% CHAPS, at least three independent measurements, read-out: Binding affinity (KD) toward 14-3-3 isoform σ
In short: as §1

human 14-3-3 isoform ϵ = biological target: T2, human 14-3-3 isoform ϵ; test: as above; conditions: fluorescein-labeled peptide 1 nM, 20 mM MOPS pH 7, 150 mM NaCl, 0.005% CHAPS, bound given in μM, read-out: Binding affinity (KD) toward 14-3-3 isoform ϵ
In short: as §1

human 14-3-3γ = biological target: T3, human 14-3-3γ; test: as above; conditions: fluorescein-labeled peptide 1 nM, 20 mM MOPS pH 7, 150 mM NaCl, 0.005% CHAPS, at least three independent measurements, read-out: Binding affinity (KD) toward 14-3-3 isoform γ
In short: as §1

[1] = biological target: T4, human 14-3-3 isoform β (recombinant, …); test: fluorescence polarisation; direct binding; dilution series of 14-3-3 isoform (at least 5 μM down to picomolar) mixed with 1 nM fluorescein-labelled peptide; 20 mM MOPS pH 7, 150 mM NaCl, 0.005% CHAPS; 384-well plates; conditions: both partners purified
[2] = biological target: T5, human 14-3-3 isoform ε (recombinant, …); test: as above; conditions: both partners purified
[3] = biological target: T6, human 14-3-3 isoform ζ (recombinant, …); test: as above; conditions: both partners purified
[4] = biological target: T7, human 14-3-3 isoform η (recombinant, …); test: as above; conditions: both partners purified
[5] = biological target: T8, human 14-3-3 isoform θ (recombinant, …); test: as above; conditions: both partners purified
[6] = biological target: T9, human 14-3-3 isoform σ (recombinant, …); test: as above; conditions: both partners purified

Molecule | Kd (human 14-3-3 isoform β) [nM] | Kd (human 14-3-3 isoform ζ) [nM] | Kd (human 14-3-3 isoform η) [nM] | Kd (human 14-3-3 isoform θ) [nM] | Kd (human 14-3-3 isoform σ) [nM] | Kd (human 14-3-3 isoform ϵ) [µM] | Kd (human 14-3-3γ) [nM] | binding result [1] | binding result [2] | binding result [3] | binding result [4] | binding result [5] | binding result [6]
CC[C@H](C)[C@H](NC(=O)[C@H](CC(N)=O)NC(=O)[C@H](Cc1ccccc1)NC(=O)[C@@H](N)CC(C)C)C(=O)N[C@@H](CCCCN)C(=O)N[C@@H](C)C(=O)N[C@@H](CCCNC(=N)N)C(=O)N[C@@H](C)C(=O)N[C@@H](CO)C(=O)N[C@@H](COP(=O)(O)O)C(=O)N[C@@H](CO)C(=O)N1CCC[C@H]1C(=O)N[C@H](C(=O)N[C@H](C(=O)N[C@@H](CC(C)C)C(=O)N[C@H](C(=O)NCC(=O)N[C@H](C(=O)O)[C@@H](C)O)C(C)C)[C@@H](C)CC)C(C)C [pS1444] (H-LFNIKARAS[pS]SPVILVGT-OH) | 183 ± 25 | 476 ± 165 | 85 ± 10 | 195 ± 42 | 802 ± 261 | > 1 | 106 ± 4 |  |  |  |  |  | 
B1 |  |  |  |  |  |  |  | binds | binds | binds | binds | binds | binds

Source: article PMC7155755, “Binding of the Human 14-3-3 Isoforms to Distinct Sites in the Leucine-Rich Repeat Kinase 2” (Frontiers in Neuroscience, 2020)
